# Measurements: patent EP4134671A1, “METHYLENE QUINUCLIDINONE COMPANION DIAGNOSTICS” (Deutsches Krebsforschungszentrum Stiftung des öffentlichen …, priority 2021, dated 2023)
# How the values were obtained:
# IMR-32 = assay: Metabolic activity assay (CellTiter-Glo); type: cell-based; conditions: for IC50: IMR-32
# Experimental: (§1) If not otherwise declared, cells were precultured for 72 h at a density of 2,000,000 cells per T75 flask (exceptions: Kelly, NB1 and IMR-32 4,000,000 per T75 flask, SJ-GBM2 1,000,000 per T75 flask). Cells were detached with trypsin-EDTA (ThermoFisher Scientific) and seeded in 96-well plates (Greiner, Microplate, 96-Well, PS, F-bottom µCLEAR®, CELLSTAR®) in 100 µl medium per well at a density of 5,000 (KNS-42, SJ-GBM2, SF188, SK-N-BE(2)-C) or 10,000 (IMR-32, NB1, Kelly) cells/well. HDAC-inhibitor screenings were performed accordingly in 384-well plates (Greiner, Microplate, 384-Well, PS, F-bottom µCLEAR®, CELLSTAR®) in 20 µl medium per well at a density of 1,250 (SK-N-BE(2)-C, SK-N-AS) or 2,500 (IMR-32) cells/well. To avoid edge effects, margin wells (row A and H, column 1 and 12) contained PBS or medium and medium-containing wells were used as background controls. After 24 h incubation, cells were treated for 72 h. Drugs were applied using a Tecan D300e drug printer. Cell viability was quantified using CellTiter-Glo® 2.0 kit (Promega, Madison, USA). 50 µl CellTiter-Glo® (96-well) or 25 µl CellTiter-Glo® (384-well) were added to every well, the plates were shaken at 400 rpm for 5 min and were then incubated for another 10 min. Bioluminescence was quantified on an OPTIMA plate reader (BMG Labtech, Ortenberg, Germany).
# (§2) All cell culture experiments were performed in triplicate. A two-tailed t-test, unpaired or paired, or ANOVA where appropriate, were performed using software program R (R version 3.2.2, 2015; The R Foundation for Statistical Computing). The packages tidyverse, janitor, readxl, writxl, ROCR, ggplot2 and ggsignif were used to calculate and plot the data. P-values of less than 0.05 were considered significant (^∗p < 0.05, ^∗∗p < 0.01, ^∗∗∗p < 0.001). IC50 values were calculated using GraphPad Prism Version 9.1.0 (GraphPad Software). Synergistic interactions were analyzed with SynergyFinder using the HSA (highest single agent) reference model, as the assumptions of other models were not fulfilled.
# SK-N-BE(2)-C = assay: Metabolic activity assay (CellTiter-Glo); type: cell-based; conditions: for IC50: SK-N-BE(2)-C
# Experimental: as §1, §2
# SK-N-AS = assay: Metabolic activity assay (CellTiter-Glo); type: cell-based
# Experimental: as §1, with “HDAC-inhibitor screenings were performed accordingly in 384-well plates (Greiner, Microplate, 384-Well, PS, F-bottom µCLEAR®, CELLSTAR®) in 20 µl medium per well at a density of 1,250 (SK-N-BE(2)-C, SK-N-AS) or 2,500 (IMR-32) cells/well.” left out
# as §2, with “A two-tailed t-test, unpaired or paired, or ANOVA where appropriate, were performed using software program R (R version 3.2.2, 2015; The R Foundation for Statistical Computing).” left out
# Zebrafish embryo = Zebrafish embryo drug toxicity assay; type: in vivo; conditions: embryos 48 hpf, 34°C, imaged at 72 hpf and 120 hpf; APR-246 range 10-200 µM, Vorinostat range 2.5-100 µM
# Experimental: The toxicity of the compounds was assessed before performing in vivo experiments and a Maximum Tolerated Dose (MTD) was determined. Embryos (48 hpf) were transferred to 48-well uncoated plates (Corning) containing different concentrations of the compounds and a solvent control. The stock solution of the compounds was further dissolved in E3 buffer supplemented with 0.2mM 1-phenyl-2- thiourea (PTU, Sigma) in order to reach the desired concentrations. Three embryos were tested per concentration or solvent control. Embryos were kept at 34°C during the experiment and were imaged at 72 hpf and 120 hpf using a stereo microscope (Leica). The embryos were assessed for signs of toxicity, like death, morphology changes (curvature of body, edema) and behavioral changes. APR-246 concentration range tested: 10-200 µM, MTD: 50µM; solvent control: DMSO (0.2% and 0.5%); Vorinostat concentration range tested: 2.5-100 µM, no toxicity detected (MTD: 100µM); solvent control: DMSO (0.1%).
# [1] = Clinical plasma pharmacokinetics (background); type: in vivo; conditions: estimated from Cmax and half-life
# [2] = system: p53 target genes CDKN1A, PUMA and GADD45A; assay: Real-time PCR of p53 pathway activation in IMR-32; type: cell-based; conditions: IMR-32 (TP53-wt), 24 h
# Experimental: (§3) Real-time PCR was performed as described previously (Fischer et al., J Mol Diagn 2005, 7, 89-96; Witt et al., Blood 2003, 101, 2001-2007). The following primers were purchased from ThermoFisher Scientific: CDKN1A (p21^WAF1/^CIP1, forward: 5'-TGGAGACTCTCAGGGTCGAAA-3'(SEQ ID NO:1), reverse: 5'-GGCGTTTGGAGTGGTAGAAATC-3'(SEQ ID NO.2)), HPRT (forward: 5'-TGACACTGGCAAAACAATGCA-3'(SEQ ID NO:3), reverse: 5'-GGTCCTTTTCACCAGCAAGCT-3'(SEQ ID NO:4)), SDHA (forward: 5'-TGGGAACAAGAGGGCATCTG-3'(SEQ ID NO:5), reverse: 5'-CCACCACTGCATCAAATTCATG-3'(SEQ ID NO:6)), and PUMA (forward: 5'-CCTGGAGGGTCCTGTACAATCT-3'(SEQ ID NO:7), reverse: 5'-GCACCTAATTGGGCTCCATCT-3'(SEQ ID NO:8)). The primer for GADD45A was purchased from Qiagen, Hilden, Germany (QT00014084). The delta-delta-Ct method was used to calculate the relative expression, and normalization was performed to neuroblastoma specific housekeeping genes SDHA and HPRT (Fischer et al., J Mol Diagn 2005, 7, 89-96).
# [3] = system: p53 target gene expression; assay: Real-time PCR of p53 pathway activation in SK-N-BE(2)-C; type: cell-based; conditions: SK-N-BE(2)-C (C135F), 24 h
# Experimental: as §3
# [4] = system: p53 target gene expression (CDKN1A and GADD45A); assay: Real-time PCR of p53 pathway activation in SJ-GBM2; type: cell-based; conditions: APR-246 treatment
# Experimental: as §3
# [5] = system: p53 target gene expression (CDKN1A and GADD45A); assay: Real-time PCR of p53 pathway activation in SF188; type: cell-based; conditions: APR-246 treatment
# Experimental: as §3
# IMR-32 cells = assay: Flow cytometry: ROS (DCFDA) and lipid peroxidation (BODIPY); type: cell-based; conditions: IMR-32, 50 µM APR-246 for 5 h vs solvent control (DMSO), FACS
# Experimental: Flow Cytometry was applied to analyze the lipid peroxidation (BODIPY staining) and to detect ROS (DCFDA staining). BODIPY 581/591 C11 Lipid peroxidation sensor staining (stock concentration: 20 mM in dimethylformamide, Invitrogen, Thermo Fisher Scientific) was used at a working concentration of 20 µM, and was diluted with RPMI without phenol red (Gibco). After inspection, the cells were detached, centrifuged and stained for 20 minutes at 37°C in a 500 µl staining solution. After centrifugation, cells were resuspended in 300 µl RPMI without phenol red, supplemented with 10% FCS. Fluorescence was measured in a FACSCanto II (BD) with 488 nm excitation and detected using a 502 nm longpass and 530/30 nm bandpass filter. Data were analyzed using FlowJo 10.x.
# ROS detection was performed as previously described (Oehme et al., Proc Natl Acad Sci U S A 2013, 110, E2592-2601).
# [6] = system: vincristine resistant SK-N-BE(2)-C; assay: Metabolic activity assay (CellTiter-Glo), vincristine resistant cells; type: cell-based; conditions: vincristine resistant vs non-resistant control SK-N-BE(2)-C; 72 h, APR-246 0 - 30 µM
# Experimental: Vincristine resistant and non-resistant SK-N-BE(2)-C (passage 30 to 45, kindly provided by M. Michaelis, University of Kent, and J. Cinatl, Goethe University, Frankfurt am Main) were cultured using IMDM with L-Glutamine, 2mM HEPES (Gibco) supplemented with 10% FCS; for the resistant cells, 20 ng/ml vincristine was added to the medium. The cells were made to be resistant to vincristine-treatment through long-term cultivation in a vincristine containing medium.
# as §1, with “To avoid edge effects, margin wells (row A and H, column 1 and 12) contained PBS or medium and medium-containing wells were used as background controls. After 24 h incubation, cells were treated for 72 h. Drugs were applied using a Tecan D300e drug printer.” left out, “50 µl CellTiter-Glo® (96-well) or 25 µl CellTiter-Glo® (384-well) were added to every well, the plates were shaken at 400 rpm for 5 min and were then incubated for another 10 min.” left out
# [7] = clinical; cited from earlier work
# SF188 = assay: Metabolic activity assay (CellTiter-Glo); type: cell-based; conditions: doxorubicin combined with APR-246
# Experimental: as §1, §2
# SJ-GBM2 = assay: Metabolic activity assay (CellTiter-Glo); type: cell-based; conditions: doxorubicin combined with APR-246
# Experimental: as §1, §2
# [8] = Homo sapiens, HDAC inhibitor alone, 72 h, 384-well
# [9] = HDAC inhibitor alone, 72 h, 384-well
smiles,measurement,setting,value
C/C=C1\NC(=O)[C@H]2CSSCC/C=C/[C@H](CC(=O)N[C@H](C(C)C)C(=O)N2)OC(=O)[C@H](C(C)C)NC1=O [romidepsin],IC50,IMR-32; [8],0.73 nM
same,IC50,IMR-32; HDAC inhibitor + APR-246 1 µM,0.24 nM
same,IC50,SK-N-BE(2)-C; HDAC inhibitor + APR-246 10 µM,9.9 nM
same,IC50,SK-N-BE(2)-C; [9],26.9 nM
same,IC50,SK-N-AS; HDAC inhibitor + APR-246 20 µM,1.8 nM
same,IC50,SK-N-AS; [8],5.7 nM
"Cc1[nH]c2ccccc2c1CCNCc1ccc(/C=C/C(=O)NO)cc1 [panobinostat, (2E)-N-hydroxy-3-[4-({[2-(2-methyl-1H-indol-3-yl)ethyl]amino}methyl)phenyl]acrylamide]",IC50,IMR-32; [8],35.6 nM
same,IC50,IMR-32; HDAC inhibitor + APR-246 2 µM,13.9 nM
same,IC50,SK-N-BE(2)-C; HDAC inhibitor + APR-246 20 µM,3.1 nM
same,IC50,SK-N-BE(2)-C; [9],40.2 nM
same,IC50,SK-N-AS; HDAC inhibitor + APR-246 20 µM,1 nM
same,IC50,SK-N-AS; [8],2.2 nM
"COCC1(CO)C(=O)C2CCN1CC2 (stereo not drawn) [APR-246, 2-(Hydroxymethyl)-2-(methoxymethyl)-1-azabicyclo[2.2.2]octan-3-one]",Maximum Tolerated Dose (MTD),Zebrafish embryo,50 µM
same,estimated trough plasma concentration,[1],15 to 20 µM
same,p53 target gene expression,[2]; APR-246 added to doxorubicin vs doxorubicin only,did not increase target gene expression
same,p53 target gene induction,[3]; APR-246 added to doxorubicin,did not improve p53 target gene induction
same,p53 target gene expression (CDKN1A and GADD45A),[4],no reactivation
same,p53 target gene expression (CDKN1A and GADD45A),[5],no reactivation
same,ROS formation and lipid peroxidation,IMR-32 cells,increased ROS formation and lipid peroxidation
same,APR-246 sensitivity (metabolic activity),[6],increased APR-246 sensitivity
same,half-life,[7],four to five
same,maximum plasma concentration,[7],approximately 280 µM
"CN(C)Cc1c(C(=O)NCCOc2ccc(C(=O)NO)cc2)oc2ccccc12 [abexinostat, 3-[(Dimethylamino)methyl]-N-{2-[4-(hydroxycarbamoyl)phenoxy]ethyl}-1-benzofuran-2-carboxamide]",IC50,IMR-32; [8],100 nM
same,IC50,IMR-32; HDAC inhibitor + APR-246 2 µM,30.4 nM
same,IC50,SK-N-BE(2)-C; HDAC inhibitor + APR-246 10 µM,37.5 nM
same,IC50,SK-N-BE(2)-C; [9],172 nM
same,IC50,SK-N-AS; HDAC inhibitor + APR-246 20 µM,15.4 nM
same,IC50,SK-N-AS; [8],46.3 nM
"O=C(CCCCCCC(=O)Nc1ccccc1)NO [vorinostat, N-Hydroxy-N'-phenyloctanediamide]",HSA synergy score,"SK-N-AS; 72 h co-treatment of vorinostat (0-10 µM) with APR-246 (0, 15, 30, 45 µM), SynergyFinder HSA model",12.17
same,Maximum Tolerated Dose (MTD),Zebrafish embryo,100 µM
COc1cccc2c1C(=O)c1c(O)c3c(c(O)c1C2=O)C[C@@](O)(C(=O)CO)C[C@@H]3O[C@H]1C[C@H](N)[C@H](O)[C@H](C)O1 [doxorubicin],doxorubicin sensitivity (metabolic activity),"IMR-32; IMR-32 (TP53-wt), fixed APR-246 concentration with different doses of doxorubicin",increased doxorubicin sensitivity
same,cell viability,SF188,decreased cell viability
same,cell viability,SJ-GBM2,decreased cell viability
same,doxorubicin sensitivity (metabolic activity),"SK-N-BE(2)-C; doxorubicin resistant TP53-mutant SK-B-BE(2)-C, fixed APR-246 concentration with different doses of doxorubicin",increased doxorubicin sensitivity
same,"p53 target genes CDKN1A, PUMA and GADD45A expression",[2]; doxorubicin single-treatment,upregulation
same,p53 target gene expression,[3]; doxorubicin single treatment,failed to activate p53 target gene expression
